# Measurements taken from patent publication US20250263396A1, “CRYSTALLINE FORMS OF 3-(5-(2-HYDROXY-2- METHYLPROPOXY)-6-METHYPYRAZIN-2-YL)-1H-INDOLE-7-CARBONITRILE” (NIDO BIOSCIENCES, INC., priority 2024, published 2025).
# Assay: Hygroscopicity by dynamic vapor sorption (DVS)
# Type: physicochemical
# Experimental: Dynamic vapor sorption (DVS) was performed on an Intrinsic, Advantage or Adventure with an oven temperature of 25° C. using water as a solvent. The sample mass was about 5-10 mg using the following method: • Cycle: 40-0-95-0-40% RH • Stage Step: 10% • Equilibrium: 0.002 dm/dt (%/min) • Minimum dm/dt stability duration: 60 min • Maximum dm/dt stage time: 360 min.
# Hygroscopicity of Form P was evaluated by dynamic vapor sorption (DVS) test at 25° C. Form P is non-hygroscopic at 80% RH; about 0.1% water uptake at 80% RH. Form P is slightly hygroscopic from 80% RH-95% RH: About 1.6% water uptake from 80% RH to 95% RH.
# [1] = 10% relative humidity at 25° C.
# [2] = 20% relative humidity at 25° C.
# [3] = 30% relative humidity at 25° C.
# [4] = 40% relative humidity at 25° C.
# [5] = 50% relative humidity at 25° C.
# [6] = 60% relative humidity at 25° C.
# [7] = 70% relative humidity at 25° C.
# [8] = 80% relative humidity at 25° C.
# [9] = 90% relative humidity at 25° C.
# [10] = 95% relative humidity at 25° C.
smiles,measurement,setting,value
"Cc1nc(-c2c[nH]c3c(C#N)cccc23)cnc1OCC(C)(C)O [Form P, 3-(5-(2-hydroxy-2-methylpropoxy)-6-methylpyrazin-2-yl)-1H-indole-7-carbonitrile]",1st desorp. Weight % change,0% relative humidity at 25° C.,0.1%
same,1st sorp. Weight % change,0% relative humidity at 25° C.,0.1%
same,2nd desorp. Weight % change,0% relative humidity at 25° C.,0.0%
same,2nd sorp. Weight % change,0% relative humidity at 25° C.,0.0%
same,1st desorp. Weight % change,[1],0.1%
same,1st sorp. Weight % change,[1],0.1%
same,2nd desorp. Weight % change,[1],0.0%
same,2nd sorp. Weight % change,[1],0.0%
same,1st desorp. Weight % change,[2],0.1%
same,1st sorp. Weight % change,[2],0.1%
same,2nd desorp. Weight % change,[2],0.0%
same,2nd sorp. Weight % change,[2],0.0%
same,Form after the DVS test,25° C.,still in Form P
same,1st desorp. Weight % change,[3],0.2%
same,1st sorp. Weight % change,[3],0.1%
same,2nd desorp. Weight % change,[3],0.1%
same,2nd sorp. Weight % change,[3],0.0%
same,1st desorp. Weight % change,[4],0.2%
same,1st sorp. Weight % change,[4],0.1%
same,2nd desorp. Weight % change,[4],0.1%
same,2nd sorp. Weight % change,[4],0.0%
same,1st sorp. Weight % change,[5],0.1%
same,2nd desorp. Weight % change,[5],0.1%
same,1st sorp. Weight % change,[6],0.1%
same,2nd desorp. Weight % change,[6],0.2%
same,1st sorp. Weight % change,[7],0.1%
same,2nd desorp. Weight % change,[7],0.3%
same,1st sorp. Weight % change,[8],0.2%
same,2nd desorp. Weight % change,[8],0.4%
same,1st sorp. Weight % change,[9],0.8%
same,2nd desorp. Weight % change,[9],0.9%
same,1st sorp. Weight % change,[10],1.8%
same,2nd desorp. Weight % change,[10],1.8%
same,Hygroscopicity,"at 80% RH, 25° C.",non-hygroscopic (water uptake <0.2% = non-hygroscopic)
same,water uptake,"at 80% RH, 25° C.",about 0.1%
same,water uptake,"from 80% RH to 95% RH, 25° C.",About 1.6%
same,Hygroscopicity,"from 80% RH-95% RH, 25° C.",slightly hygroscopic (water uptake ≥0.2% but <2% = slightly hygroscopic)
